“And” between values parts separate entries of the source, which are not always exact repeats. Equal values may be shown once. Read-outs that look alike come from different tables or passages of the source.
Columns and labels:
human renin = biological target: T1, human renin (Homo sapiens, UniProt P00797); experiment: Human renin inhibition in vitro; format: biochemical
T1 construct: purchased National Institute for Biological Standards, London
T1 sequence (P00797 67-406): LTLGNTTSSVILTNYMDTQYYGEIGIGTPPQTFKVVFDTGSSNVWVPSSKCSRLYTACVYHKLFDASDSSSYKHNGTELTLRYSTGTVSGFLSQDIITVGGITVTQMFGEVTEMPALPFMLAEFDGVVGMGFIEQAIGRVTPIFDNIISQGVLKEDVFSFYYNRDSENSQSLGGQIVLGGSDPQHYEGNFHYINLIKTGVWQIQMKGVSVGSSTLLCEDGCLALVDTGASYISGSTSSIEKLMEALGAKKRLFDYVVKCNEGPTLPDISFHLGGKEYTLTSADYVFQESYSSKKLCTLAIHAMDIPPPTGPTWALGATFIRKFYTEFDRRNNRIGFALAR
Description: Compounds of Formula I were evaluated as inhibitors of human renin in an in vitro assay, as follows: This human renin inhibition test has been previously described in detail [Papaioannou et al., Clinical and Experimental Hypertension, A7(9), 1243-1257 (1985)]. Human renin was obtained from the National Institute for Biological Standards, London. An incubation mixture was prepared containing the following components: in a total volume of 0.25 mL: 100 mM Tris-acetate buffer at pH 7.4, 25×10^−6 Goldblatt units of renin, 0.05 mL of plasma from human volunteers taking oral contraceptives, 6.0 mM Na-EDTA, 2.4 mM phenylmethyl sulfonyl fluoride, 1.5 mM 8-hydroxyquinoline, 0.4 mg/mL bovine serum albumin (BSA), and 0.024 mg/mL neomycin sulfate. This mixture was incubated for two hours at 37° C. in the presence or absence of renin inhibitors. The produced angiotensin I was determined by radioimmunoassay (New England Nuclear kit). Test compounds to be assayed were dissolved in DMSO and diluted with 100 mM Tris-acetate buffer at pH 7.4 containing 0.5% BSA to the appropriate concentration. The final concentration of organic solvent in the reaction mixture was less than 1%. Control incubations at 37° C. were used to correct for effects of organic solvent on renin activity.

[1] = test system: Plasma Renin Activity (PRA); experiment: Marmoset plasma renin activity (PRA) reduction on oral administration; format: in vivo, Marmoset monkeys (Callithrix jacchus); conditions: IG; for inhibition at 0.1 mg/kg / inhibition at 1 mg/kg: Primates, po
Description: The oral activity of renin inhibitor compounds was determined in vivo in Marmoset monkeys using the following procedure. Common Marmoset monkeys (Callithrix jacchus, Charles River, both sexes, body weight 300-400 g) were placed on a modified high-protein low-sodium diet (Purina, St. Louis, Mo.) for 1 week. About 24 hours prior to the administration of test compound, Lasix (5 mg/kg, im) was given. On the day of the test, the animal was anesthetized with isoflurane, body weight recorded, and a baseline blood sample taken. Then, test compound was given intragastrically and blood samples were taken in K-EDTA for plasma renin activity at appropriate time intervals. The PRA was determined by using the protocol outlined below. Results are expressed in terms of PRA at various time intervals both before and after compound administrations (“Pre” means pretreatment levels before compound administrations). Also included is percent inhibition (% INH from pretreatment levels).
I. Angiotensin I Generation
25 ml of the above reaction mixtures, in duplicate, were incubated at 37° C. or 0° C. for 2 hours.
II. Determination of Angiotensin I Concentrations
Angiotensin I (AI) concentrations were determined by radioimmunoassays with a commercial kit from NEN Co.
III. Calculation of Plasma Renin Activity
PRA (ng AI/ml/hr)=(AI at 37°−AI at 0°)/2 hr.

[2] = 0.1 MPK, 60 min, individual monkeys
[3] = 0.1 MPK, 60 min from dosing, individual monkeys
[4] = 0.1 MPK, 120 min, individual monkeys
[5] = 0.1 MPK, 120 min from dosing, individual monkeys
[6] = 0.1 MPK, 240 min, individual monkeys
[7] = 0.1 MPK, 240 min from dosing, individual monkeys
[8] = 0.1 MPK, Pre (pretreatment level), individual monkeys
[9] = 0.1 MPK, 60 min, individual monkeys, read-out: % INH (from pretreatment PRA)
[10] = 0.1 MPK, 240 min, individual monkeys, read-out: % INH (from pretreatment PRA)
[11] = 1 h, 0.1 MPK, 60 min, mean of monkeys A-C, read-out: MEAN % INH
[12] = 2 h, 0.1 MPK, 120 min, mean of monkeys A-C, read-out: MEAN % INH
[13] = 4 h, 0.1 MPK, 240 min, mean of monkeys A-C, read-out: MEAN % INH

| Structure (SMILES) | IC50 (human renin) | % INH (from pretreatment PRA) [1, 2] | PRA [1, 3] | % INH (from pretreatment PRA) [1, 4] | PRA [1, 5] | % INH (from pretreatment PRA) [1, 6] | PRA [1, 7] | PRA [1, 8] | inhibition at 0.1 mg/kg [1, 9] | inhibition at 0.1 mg/kg [1, 10] | inhibition at 0.1 mg/kg [1, 11] | inhibition at 0.1 mg/kg [1, 12] | inhibition at 0.1 mg/kg [1, 13] | other results |
| --- | --- | --- | --- | --- | --- | --- | --- | --- | --- | --- | --- | --- | --- | --- |
| C#CC[C@H](NC(=O)[C@@H](CC(=O)N(C)CCN(CC)CC)Cc1ccccc1)C(=O)N[C@@H](CC1CCCCC1)[C@@H](O)[C@@H](O)CC(C)C [Example 4] | 1 nM |  |  |  |  |  |  |  |  |  |  |  |  |  |
| C#CC[C@H](NC(=O)C(Cc1ccccc1)OC(=O)N(C)CCN(C)C)C(=O)NC(CC1CCCCC1)[C@@H](O)C(O)CC(C)C (relative stereo) [Example 2, [1R*-[[[1R*-[[[1S,1R*-(Cyclohexylmethyl)-2S*,3R*-dihydroxy-5-methylhexyl]amino]carbonyl]-3-butynyl]amino]carbonyl]-2-phenylethyl)[2-(dimethylamino)ethyl]methylcarbamate] | 4 nM | 71.5% and 81.2% | 3.9 ngAI/ml/hr and 33.9 ngAI/ml/hr and 12.7 ngAI/ml/hr | 86.4% and 64.8% and 78.7% | 5.7 ngAI/ml/hr and 41.8 ngAI/ml/hr and 14.4 ngAI/ml/hr | 57.2% and 58.2% | 28.5 ngAI/ml/hr and 18.1 ngAI/ml/hr and 49.7 ngAI/ml/hr | 42.2 ngAI/ml/hr and 118.8 ngAI/ml/hr and 67.5 ngAI/ml/hr | 90.7% | 57.7% | 81.1 ± 6% | 76.6 ± 6% | 57.7% |  |
| C#CCC(NC(=O)C(Cc1ccccc1)OC(=O)N(C)CCN(C)C)C(=O)NC(CC1CCCCC1)[C@@H](O)C(O)CC(C)C (stereo in doubt) [Example 3, [1R*-[[[1-[[[1S,1R*-(Cyclohexylmethyl)-2S*,3R*-dihydroxy-5-methylhexyl]amino]carbonyl]-3-butynyl]amino]carbonyl]-2-phenylethyl[]2-(dimethylamino)ethyl]methylcarbamate] | 3 nM | 60.7% and 66.7% | 42.1 ngAI/ml/hr and 29.8 ngAI/ml/hr and 27.8 ngAI/ml/hr | 46.9% and 60.3% | 47.1 ngAI/ml/hr and 40.3 ngAI/ml/hr and 33.2 ngAI/ml/hr | 63.9% and 48% | 36.1 ngAI/ml/hr and 38.1 ngAI/ml/hr and 39.5 ngAI/ml/hr | 105.5 ngAI/ml/hr and 76 ngAI/ml/hr and 83.7 ngAI/ml/hr | 60.1% | 56.8% | 62.5 ± 2% | 54.2 ± 4% | 56.2 ± 5% | PRA ([1]; 1.0 MPK, 60 min from dosing, individual monkeys): 0 ngAI/ml/hr; PRA ([1]; 1.0 MPK, 120 min from dosing, individual monkeys): 0 ngAI/ml/hr; PRA ([1]; 1.0 MPK, 240 min from dosing, individual monkeys): 0 ngAI/ml/hr; PRA ([1]; 1.0 MPK, Pre (pretreatment level), individual monkeys): 70.5 ngAI/ml/hr and 185.4 ngAI/ml/hr and 76.1 ngAI/ml/hr; inhibition at 0.1 mg/kg ([1]; 0.1 MPK, 120 min, individual monkeys, read-out: % INH (from pretreatment PRA)): 55.3%; inhibition at 1 mg/kg ([1]; 1.0 MPK, 60 min, individual monkeys, read-out: % INH (from pretreatment PRA)): 100%; inhibition at 1 mg/kg ([1]; 1.0 MPK, 120 min, individual monkeys, read-out: % INH (from pretreatment PRA)): 100%; inhibition at 1 mg/kg ([1]; 1.0 MPK, 240 min, individual monkeys, read-out: % INH (from pretreatment PRA)): 100%; inhibition at 1 mg/kg ([1]; 1.0 MPK, printed on the Pre line, read-out: % INH): 100%; inhibition at 1 mg/kg ([1]; 1 h, 1.0 MPK, 60 min, mean of monkeys, read-out: MEAN % INH): 100%; inhibition at 1 mg/kg ([1]; 2 h, 1.0 MPK, 120 min, mean of monkeys, read-out: MEAN % INH): 100%; inhibition at 1 mg/kg ([1]; 4 h, 1.0 MPK, 240 min, mean of monkeys, read-out: MEAN % INH): 100% |
